Laboratory results taken from patent publication US9533064B1, “Device and method for decontamination, disinfection, and sanitation” (Nanomist Systems, LLC, priority 2013, dated 2017).

Tested on: G. Stearothermophilus
[1] = 36-m^3 room and 110-m^3 carpeted rooms, initial 40-55% RH, 20-25 C, biological indicators in Tyvek pouches

Protocol: The application of condensed vapor cloud generated biocide dispersion was tested in a 36-m^3 single room and in 110-m^3 two-room model (family room+bathroom). The single room was tiled floor and two-room model had wall-to-wall carpet. With initial room humidity in the range 40-55% RH and 20-25 C, decontamination tests were carried out using biological indicators (BI). Biological indicator test disks were prepared by Mesa Labs. The Biological indicators are inoculated with 4-log, 5-log and 6-log populations of G. Stearothermophilus. The BI's are in Tyvek pouches. […] The condensed vapor generator was calibrated with scaling of room size, mass concentration, carpet/tilled floor, and initial RH and temperature.

Question: `OO` [HP, hydrogen peroxide] was tested. Which “HP concentration above which 5-log kills were observed” value [1] did it give?
Answer: above 0.7 g/m^3

Question: And the “HP concentration above which 6-log kill was observed” value [1]?
Answer: above 1.8 g/m^3

Question: What about the kill time (HP mass injection rate of −50 g/min) of the same compound?
Answer: 10 to 15 min
